Measurements taken from the NIST ThermoML archive (doi:10.1016/j.jct.2018.11.004).
Where “and” joins values, the source holds several entries; their conditions need not be identical. Equal values may be shown once.

Legend:
[1] = Molar enthalpy of transition or fusion
[2] = for molar entropy: 101.33 kPa, Small (less than 1 g) adiabatic calorimetry

CC(C)[C@@H]1CC[C@@H](C)C[C@H]1O [L-menthol]
Conditions | Molar enthalpy of transition or fusion, [1] [kcal/mol] | Triple point temperature, [2] [K]
Crystal 1, Adiabatic calorimetry | 3.22 | 315.6
Crystal 1, DSC | 3.18 | 315.4

Conditions | Molar enthalpy of transition or fusion [kcal/mol] | Triple point temperature [K] | molar entropy [J/K/mol] | vapor or sublimation pressure
[1], Metastable crystal, DSC | 2.72 | – | – | –
[2], 5 K, Crystal 1 | – | – | 0.2864 | –
[2], 10 K, Crystal 1 | – | – | 2.099 | –
[2], 15 K, Crystal 1 | – | – | 5.656 | –
[2], 20 K, Crystal 1 | – | – | 10.35 | –
[2], 25 K, Crystal 1 | – | – | 15.64 | –
[2], 30 K, Crystal 1 | – | – | 21.2 | –
[2], 35 K, Crystal 1 | – | – | 26.81 | –
[2], 40 K, Crystal 1 | – | – | 32.36 | –
[2], 45 K, Crystal 1 | – | – | 37.82 | –
[2], 50 K, Crystal 1 | – | – | 43.18 | –
[2], 55 K, Crystal 1 | – | – | 48.45 | –
[2], 60 K, Crystal 1 | – | – | 53.64 | –
[2], 65 K, Crystal 1 | – | – | 58.76 | –
[2], 70 K, Crystal 1 | – | – | 63.82 | –
[2], 75 K, Crystal 1 | – | – | 68.83 | –
[2], 80 K, Crystal 1 | – | – | 73.79 | –
[2], 85 K, Crystal 1 | – | – | 78.72 | –
[2], 90 K, Crystal 1 | – | – | 83.6 | –
[2], 95 K, Crystal 1 | – | – | 88.45 | –
[2], 100 K, Crystal 1 | – | – | 93.27 | –
[2], 105 K, Crystal 1 | – | – | 98.05 | –
[2], 110 K, Crystal 1 | – | – | 102.8 | –
[2], 115 K, Crystal 1 | – | – | 107.5 | –
[2], 120 K, Crystal 1 | – | – | 112.2 | –
[2], 125 K, Crystal 1 | – | – | 116.8 | –
[2], 130 K, Crystal 1 | – | – | 121.4 | –
[2], 135 K, Crystal 1 | – | – | 126 | –
[2], 140 K, Crystal 1 | – | – | 130.6 | –
[2], 145 K, Crystal 1 | – | – | 135.1 | –
[2], 150 K, Crystal 1 | – | – | 139.5 | –
[2], 155 K, Crystal 1 | – | – | 144 | –
[2], 160 K, Crystal 1 | – | – | 148.4 | –
[2], 165 K, Crystal 1 | – | – | 152.8 | –
[2], 170 K, Crystal 1 | – | – | 157.2 | –
[2], 175 K, Crystal 1 | – | – | 161.5 | –
[2], 180 K, Crystal 1 | – | – | 165.8 | –
[2], 185 K, Crystal 1 | – | – | 170.1 | –
[2], 190 K, Crystal 1 | – | – | 174.4 | –
[2], 195 K, Crystal 1 | – | – | 178.7 | –
[2], 200 K, Crystal 1 | – | – | 182.9 | –
[2], 205 K, Crystal 1 | – | – | 187.1 | –
[2], 210 K, Crystal 1 | – | – | 191.4 | –
[2], 215 K, Crystal 1 | – | – | 195.5 | –
[2], 220 K, Crystal 1 | – | – | 199.7 | –
[2], 225 K, Crystal 1 | – | – | 203.9 | –
[2], 230 K, Crystal 1 | – | – | 208.1 | –
[2], 235 K, Crystal 1 | – | – | 212.2 | –
[2], 240 K, Crystal 1 | – | – | 216.3 | –
[2], 245 K, Crystal 1 | – | – | 220.5 | –
[2], 250 K, Crystal 1 | – | – | 224.6 | –
[2], 255 K, Crystal 1 | – | – | 228.7 | –
[2], 260 K, Crystal 1 | – | – | 232.9 | –
[2], 265 K, Crystal 1 | – | – | 237 | –
[2], 270 K, Crystal 1 | – | – | 241.2 | –
[2], 273.64 K, Crystal 1, Closed cell (Static) method | – | – | – | 0.000244 kPa
[2], 273.65 K, Crystal 1, Closed cell (Static) method | – | – | – | 0.000244 kPa and 0.000242 kPa
[2], 275 K, Crystal 1 | – | – | 245.3 | –
[2], 277.38 K, Crystal 1, Closed cell (Static) method | – | – | – | 0.000399 kPa
[2], 277.41 K, Crystal 1, Closed cell (Static) method | – | – | – | 0.000401 kPa
[2], 277.5 K, Crystal 1, Closed cell (Static) method | – | – | – | 0.000403 kPa
[2], 278.15 K, Crystal 1, Closed cell (Static) method | – | – | – | 0.000441 kPa and 0.00044 kPa
[2], 278.16 K, Crystal 1, Closed cell (Static) method | – | – | – | 0.00044 kPa
[2], 280 K, Crystal 1 | – | – | 249.5 | –
[2], 282.34 K, Crystal 1, Closed cell (Static) method | – | – | – | 0.000758 kPa and 0.000756 kPa and 0.000759 kPa
[2], 283.15 K, Crystal 1, Closed cell (Static) method | – | – | – | 0.000839 kPa and 0.00084 kPa
[2], 285 K, Crystal 1 | – | – | 253.6 | –
[2], 286.97 K, Crystal 1, Closed cell (Static) method | – | – | – | 0.001352 kPa and 0.001354 kPa
[2], 286.98 K, Crystal 1, Closed cell (Static) method | – | – | – | 0.001355 kPa
[2], 288.15 K, Crystal 1, Closed cell (Static) method | – | – | – | 0.001557 kPa and 0.001559 kPa
[2], 288.16 K, Crystal 1, Closed cell (Static) method | – | – | – | 0.001558 kPa
[2], 290 K, Crystal 1 | – | – | 257.8 | –
[2], 291.56 K, Crystal 1, Closed cell (Static) method | – | – | – | 0.002353 kPa
[2], 291.57 K, Crystal 1, Closed cell (Static) method | – | – | – | 0.002354 kPa
[2], 291.6 K, Crystal 1, Closed cell (Static) method | – | – | – | 0.002364 kPa
[2], 293.14 K, Crystal 1, Closed cell (Static) method | – | – | – | 0.002829 kPa and 0.002828 kPa and 0.002831 kPa
[2], 295 K, Crystal 1 | – | – | 261.9 | –
[2], 296.23 K, Crystal 1, Closed cell (Static) method | – | – | – | 0.004057 kPa and 0.004052 kPa
[2], 296.25 K, Crystal 1, Closed cell (Static) method | – | – | – | 0.004063 kPa
[2], 298.15 K, Crystal 1 | – | – | 264.6 | –
[2], 298.15 K, Crystal 1, Closed cell (Static) method | – | – | – | 0.005047 kPa and 0.005039 kPa and 0.005033 kPa
[2], 300 K, Crystal 1 | – | – | 266.1 | –
[2], 300.84 K, Crystal 1, Closed cell (Static) method | – | – | – | 0.006809 kPa
[2], 300.85 K, Crystal 1, Closed cell (Static) method | – | – | – | 0.006831 kPa
[2], 300.86 K, Crystal 1, Closed cell (Static) method | – | – | – | 0.006832 kPa
[2], 303 K, Metastable liquid | – | – | – | 0.01038 kPa and 0.01037 kPa
[2], 303.14 K, Crystal 1, Closed cell (Static) method | – | – | – | 0.008771 kPa and 0.008757 kPa and 0.008761 kPa
[2], 305 K, Crystal 1 | – | – | 270.4 | –
[2], 305.45 K, Crystal 1, Closed cell (Static) method | – | – | – | 0.01128 kPa
[2], 308.15 K, Crystal 1, Closed cell (Static) method | – | – | – | 0.01501 kPa and 0.015 kPa
[2], 308.15 K, Metastable liquid | – | – | – | 0.01672 kPa and 0.0167 kPa
[2], 308.18 K, Metastable liquid | – | – | – | 0.01676 kPa
[2], 308.19 K, Metastable liquid | – | – | – | 0.01678 kPa
[2], 308.2 K, Metastable liquid | – | – | – | 0.01678 kPa
[2], 310 K, Crystal 1 | – | – | 274.6 | –
[2], 310.04 K, Crystal 1, Closed cell (Static) method | – | – | – | 0.01833 kPa
[2], 310.07 K, Crystal 1, Closed cell (Static) method | – | – | – | 0.0184 kPa and 0.01842 kPa
[2], 313.38 K, Metastable liquid | – | – | – | 0.02657 kPa and 0.02658 kPa and 0.02656 kPa
[2], 314.67 K, Crystal 1, Closed cell (Static) method | – | – | – | 0.02949 kPa and 0.02946 kPa
[2], 315 K, Crystal 1 | – | – | 278.9 | –
[2], 315.6 K, Crystal 1 | – | – | 279.4 | –
[2], 315.6 K, Liquid | – | – | 322.1 | –
[2], 318.43 K, Liquid | – | – | – | 0.0408 kPa
[2], 318.46 K, Liquid | – | – | – | 0.04088 kPa
[2], 318.47 K, Liquid | – | – | – | 0.04094 kPa
[2], 320 K, Liquid | – | – | 327.3 | –
[2], 323.48 K, Liquid | – | – | – | 0.06146 kPa
[2], 323.5 K, Liquid | – | – | – | 0.06158 kPa
[2], 323.51 K, Liquid | – | – | – | 0.06164 kPa
[2], 325 K, Liquid | – | – | 333.3 | –
[2], 328.56 K, Liquid | – | – | – | 0.09137 kPa and 0.09138 kPa
[2], 330 K, Liquid | – | – | 339.4 | –
[2], 332.75 K, Liquid | – | – | – | 0.1252 kPa
[2], 335 K, Liquid | – | – | 345.4 | –
[2], 337.81 K, Liquid | – | – | – | 0.1804 kPa
[2], 337.82 K, Liquid | – | – | – | 0.1805 kPa
[2], 340 K, Liquid | – | – | 351.5 | –
[2], 342.89 K, Liquid | – | – | – | 0.2562 kPa and 0.2563 kPa
[2], 345 K, Liquid | – | – | 357.5 | –
[2], 347.88 K, Liquid | – | – | – | 0.3573 kPa
[2], 350 K, Liquid | – | – | 363.5 | –
[2], 352.88 K, Liquid | – | – | – | 0.4914 kPa
[2], 352.89 K, Liquid | – | – | – | 0.4914 kPa
[2], 355 K, Liquid | – | – | 369.6 | –
[2], 357.86 K, Liquid | – | – | – | 0.6662 kPa
[2], 357.87 K, Liquid | – | – | – | 0.6664 kPa
[2], 360 K, Liquid | – | – | 375.6 | –
[2], 362.82 K, Liquid | – | – | – | 0.8914 kPa
[2], 362.83 K, Liquid | – | – | – | 0.8915 kPa
[2], 365 K, Liquid | – | – | 381.5 | –
[2], 370 K, Liquid | – | – | 387.5 | –
[2], Metastable crystal, DSC | – | 310 | – | –
